From patent publication US7368578B2, “Five-membered heterocyclic compounds” (Takeda Pharmaceutical Company Limited, priority 2002, dated 2008)

melting point [°C] | Structure (SMILES)
162 to 163 | COc1cc(COc2nn(Cc3ccccc3)cc2C(=O)O)ccc1OCc1nc(-c2ccccc2)oc1C [Example 2, 1-benzyl-3-({3-methoxy-4-[(5-methyl-2-phenyl-1,3-oxazol-4-yl)methoxy]benzyl}oxy)-1H-pyrazole-4-carboxylic acid]
164 to 165 | COc1cc(COc2nn(Cc3ccccc3)cc2C(N)=O)ccc1OCc1nc(-c2ccccc2)oc1C [Example 3, 1-benzyl-3-({3-methoxy-4-[(5-methyl-2-phenyl-1,3-oxazol-4-yl)methoxy]benzyl}oxy)-1H-pyrazole-4-carboxamide]
90 to 91 | COc1cc(COc2nn(Cc3ccccc3)cc2CO)ccc1OCc1nc(-c2ccccc2)oc1C [Example 4, [1-benzyl-3-({3-methoxy-4-[(5-methyl-2-phenyl-1,3-oxazol-4-yl)methoxy]benzyl}oxy)-1H-pyrazol-4-yl]methanol]
151 to 152 | COc1cc(COc2nn(Cc3ccccc3)cc2C=O)ccc1OCc1nc(-c2ccccc2)oc1C [Example 5, 1-benzyl-3-({3-methoxy-4-[(5-methyl-2-phenyl-1,3-oxazol-4-yl)methoxy]benzyl}oxy)-1H-pyrazole-4-carbaldehyde]
101 to 102 | CCOC(=O)c1cn(Cc2ccccc2)nc1OCc1ccc(OCc2nc(-c3ccco3)oc2C)cc1 [Example 6, ethyl 1-benzyl-3-[(4-{[2-(2-furyl)-5-methyl-1,3-oxazol-4-yl]methoxy}benzyl)oxy]-1H-pyrazole-4-carboxylate]
170 to 171 | Cc1oc(-c2ccco2)nc1COc1ccc(COc2nn(Cc3ccccc3)cc2C(=O)O)cc1 [Example 7, 1-benzyl-3-[(4{[2-(2-furyl)-5-methyl-1,3-oxazol-4-yl]methoxy}benzyl)oxy]-1H-pyrazole-4-carboxylic acid]
139 to 140 | Cc1oc(-c2ccco2)nc1COc1ccc(COc2nn(Cc3ccccc3)cc2C(N)=O)cc1 [Example 8, 1-benzyl-3-[(4{[2-(2-furyl)-5-methyl-1,3-oxazol-4-yl]methoxy}benzyl)oxy]-1H-pyrazole-4-carboxamide]
193 to 194 | CC(=O)NC(=O)c1cn(Cc2ccccc2)nc1OCc1ccc(OCc2nc(-c3ccco3)oc2C)cc1 [Example 9, N-acetyl-1-benzyl-3-[(4{[2-(2-furyl)-5-methyl-1,3-oxazol-4-yl]methoxy}benzyl)oxy]-1H-pyrazole-4-carboxamide]
118 to 119 | Cc1oc(-c2ccco2)nc1COc1ccc(COc2nn(Cc3ccccc3)cc2C=O)cc1 [Example 11, 1-benzyl-3-[(4{[2-(2-furyl)-5-methyl-1,3-oxazol-4-yl]methoxy}benzyl)oxy]-1H-pyrazole-4-carbaldehyde]
117 to 118 | CCOC(=O)c1cn(Cc2ccccc2)nc1OCc1ccc(OCc2nc(-c3ccco3)oc2C)c(OC)c1 [Example 12, ethyl 1-benzyl-3-[(4-{[2-(2-furyl)-5-methyl-1,3-oxazol-4-yl]methoxy}-3-methoxybenzyl)oxy]-1H-pyrazole-4-carboxylate]
167 to 168 | COc1cc(COc2nn(Cc3ccccc3)cc2C(=O)O)ccc1OCc1nc(-c2ccco2)oc1C [Example 13, 1-benzyl-3-[(4-{[2-(2-furyl)-5-methyl-1,3-oxazol-4-yl]methoxy}-3-methoxybenzyl)oxy]-1H-pyrazole-4-carboxylic acid]
160 to 161 | COc1cc(COc2nn(Cc3ccccc3)cc2C(N)=O)ccc1OCc1nc(-c2ccco2)oc1C [Example 14, 1-benzyl-3-[(4-{[2-(2-furyl)-5-methyl-1,3-oxazol-4-yl]methoxy}-3-methoxybenzyl)oxy]-1H-pyrazole-4-carboxamide]
104 to 105 | COc1cc(COc2nn(Cc3ccccc3)cc2CO)ccc1OCc1nc(-c2ccco2)oc1C [Example 15, (1-benzyl-3-[(4-{[2-(2-furyl)-5-methyl-1,3-oxazol-4-yl]methoxy)-3-methoxybenzyl)oxy]-1H-pyrazol-4-yl}methanol]
139 to 140 | COc1cc(COc2nn(Cc3ccccc3)cc2C=O)ccc1OCc1nc(-c2ccco2)oc1C [Example 16, 1-benzyl-3-[(4-{[2-(2-furyl)-5-methyl-1,3-oxazol-4-yl]methoxy}-3-methoxybenzyl)oxy]-1H-pyrazole-4-carbaldehyde]
105 to 106 | COc1cc(COc2nn(Cc3ccccc3)cc2C(C)O)ccc1OCc1nc(-c2ccco2)oc1C (stereo not drawn) [Example 18, 1-{1-benzyl-3-[(4-{[2-(2-furyl)-5-methyl-1,3-oxazol-4-yl]methoxy}-3-methoxybenzyl)oxy]-1H-pyrazol-4-yl}-1-ethanol]
144 to 145 | COc1cc(COc2nn(Cc3ccccc3)cc2C(C)=O)ccc1OCc1nc(-c2ccco2)oc1C [Example 19, 1-{1-benzyl-3-[(4-{[2-(2-furyl)-5-methyl-1,3-oxazol-4-yl]methoxy}-3-methoxybenzyl)oxy]-1H-pyrazol-4-yl}-1-ethanone]
99 to 100 | CCOC(=O)c1cn(Cc2ccccc2)nc1OCc1ccc(OCc2nc(-c3ccccc3)oc2C)cc1 [Example 20, ethyl 1-benzyl-3-({4-[(5-methyl-2-phenyl-1,3-oxazol-4-yl)methoxy]benzyl}oxy)-1H-pyrazole-4-carboxylate]

melting point [°C] | Structure (SMILES)
133 to 134 | Cc1oc(-c2ccccc2)nc1COc1ccc(COc2nn(Cc3ccccc3)cc2C=O)cc1 [Example 22, 1-benzyl-3-[{4-[(5-methyl-2-phenyl-1,3-oxazol-4-yl)methoxy]benzyl}oxy]-1H-pyrazole-4-carbaldehyde]
95 to 96 | CCOC(=O)c1cn(Cc2ccccc2)nc1OCc1cccc(OCc2nc(-c3ccccc3)oc2C)c1 [Example 23, ethyl 1-benzyl-3-({3-[(5-methyl-2-phenyl-1,3-oxazol-4-yl)methoxy]benzyl}oxy)-1H-pyrazole-4-carboxylate]
131 to 132 | Cc1oc(-c2ccccc2)nc1COc1cccc(COc2nn(Cc3ccccc3)cc2C=O)c1 [Example 25, 1-benzyl-3-({3-[(5-methyl-2-phenyl-1,3-oxazol-4-yl)methoxy]benzyl}oxy)-1H-pyrazole-4-carbaldehyde]
92 to 93 | CCOC(=O)c1cn(Cc2ccccc2)nc1OCc1cccc(OCc2nc(-c3ccco3)oc2C)c1 [Example 26, ethyl 1-benzyl-3-[(3-{[2-(2-furyl)-5-methyl-1,3-oxazol-4-yl]methoxy}benzyl)oxy]-1H-pyrazole-4-carboxylate]
135 to 136 | Cc1oc(-c2ccco2)nc1COc1cccc(COc2nn(Cc3ccccc3)cc2C=O)c1 [Example 28, 1-benzyl-3-[(3-{[2-(2-furyl)-5-methyl-1,3-oxazol-4-yl]methoxy}benzyl)oxy]-1H-pyrazole-4-carbaldehyde]
121 to 122 | CCOC(=O)c1cn(Cc2ccccc2)nc1OCc1ccc(OCc2nc(-c3ccco3)oc2C)c(OCC)c1 [Example 29, ethyl 1-benzyl-3-[(3-ethoxy-4-{[2-(2-furyl)-5-methyl-1,3-oxazol-4-yl]methoxy}benzyl)oxy]-1H-pyrazole-4-carboxylate]
144 to 145 | CCOc1cc(COc2nn(Cc3ccccc3)cc2C=O)ccc1OCc1nc(-c2ccco2)oc1C [Example 31, 1-benzyl-3-[(3-ethoxy-4-{[2-(2-furyl)-5-methyl-1,3-oxazol-4-yl]methoxy}benzyl)oxy]-1H-pyrazole-4-carbaldehyde]
147 to 148 | CCOC(=O)c1cn(Cc2ccccc2)nc1OCc1ccc(OC)c(OCc2nc(-c3ccco3)oc2C)c1 [Example 32, ethyl 1-benzyl-3-[(3-{[2-(2-furyl)-5-methyl-1,3-oxazol-4-yl]methoxy}-4-methoxybenzyl)oxy]-1H-pyrazole-4-carboxylate]
142 to 143 | COc1ccc(COc2nn(Cc3ccccc3)cc2C=O)cc1OCc1nc(-c2ccco2)oc1C [Example 34, 1-benzyl-3-[(3-{[2-(2-furyl)-5-methyl-1,3-oxazol-4-yl]methoxy}-4-methoxybenzyl)oxy]-1H-pyrazole-4-carbaldehyde]
153 to 154 | CCOC(=O)c1cn(Cc2ccccc2)nc1OCc1ccc(OCc2nc(-c3ccco3)oc2C)c(Cl)c1 [Example 35, ethyl 1-benzyl-3-[(3-chloro-4-{[2-(2-furyl)-5-methyl-1,3-oxazol-4-yl]methoxy}benzyl)oxy]-1H-pyrazole-4-carboxylate]
158 to 159 | Cc1oc(-c2ccco2)nc1COc1ccc(COc2nn(Cc3ccccc3)cc2C=O)cc1Cl [Example 37, 1-benzyl-3-[(3-chloro-4-{[2-(2-furyl)-5-methyl-1,3-oxazol-4-yl]methoxy}benzyl)oxy]-1H-pyrazole-4-carbaldehyde]
191 to 192 | Cc1oc(-c2ccco2)nc1COc1ccc(COc2nn(Cc3ccccc3)cc2C(=O)O)cc1Cl [Example 38, 1-benzyl-3-[(3-chloro-4-{[2-(2-furyl)-5-methyl-1,3-oxazol-4-yl]methoxy}benzyl)oxy]-1H-pyrazole-4-carboxylic acid]
120 to 121 | CCOC(=O)c1cn(Cc2ccccc2)nc1OCc1ccc(OCc2nc(-c3ccco3)oc2C)c(OCOC)c1 [Example 39, ethyl 1-benzyl-3-[(4-{[2-(2-furyl)-5-methyl-1,3-oxazol-4-yl]methoxy}-3-(methoxymethoxy)benzyl)oxy]-1H-pyrazole-4-carboxylate]
140 to 141 | CCOC(=O)c1cn(Cc2ccccc2)nc1OCc1ccc(OCc2nc(-c3ccco3)oc2C)nc1 [Example 40, ethyl 1-benzyl-3-[(6-{[2-(2-furyl)-5-methyl-1,3-oxazol-4-yl]methoxy}-3-pyridinyl)methoxy]-1H-pyrazole-4-carboxylate]
151 to 152 | Cc1oc(-c2ccco2)nc1COc1ccc(COc2nn(Cc3ccccc3)cc2C(=O)O)cn1 [Example 43, 1-benzyl-3-[(6-{[2-(2-furyl)-5-methyl-1,3-oxazol-4-yl]methoxy}-3-pyridinyl)methoxy]-1H-pyrazole-4-carboxylic acid]
141 to 142 | COCOc1cc(COc2nn(Cc3ccccc3)cc2C=O)ccc1OCc1nc(-c2ccco2)oc1C [Example 45, 1-benzyl-3-([4-{[2-(2-furyl)-5-methyl-1,3-oxazol-4-yl]methoxy}-3-(methoxymethoxy)benzyl]oxy)-1H-pyrazole-4-carbaldehyde]
